Assay results reported in patent US8354265B2, “Chemicals promoting the growth of N-acylhomoserine lactone-degrading bacteria” (Centre National de la Recherche Scientifique, priority 2007, dated 2013).
“Also recorded” adds a separate entry of the source.

Legend:
[1] = system: bacterial consortia originating from rhizospheric soil; experiment: C6-HSL inactivation by bacterial consortia enriched from rhizospheric soil; assay type: cell-based
[2] = system: bacteria recovered from the consortia; experiment: NAHL production and inactivation by isolates recovered from the consortia, with rrs identification; assay type: cell-based
bacterial consortia = experiment: Inactivation of C6-HSL and OC8-HSL by mannitol, 6CL, GCL and HTN consortia; assay type: cell-based
Source text: (§1) The Mannitol-, 6CL-, GCL-, and HTN-consortia were compared for their capacity to inactivated OC8-HSL, the major NAHL produced by the plant pathogen Erwinia carotovora subsp. atroseptica 6276, as well as for their biocontrol activity against this pathogen in potato maceration assay.

[3] = system: Erwinia carotovora subsp. atroseptica 6276; experiment: Maceration assay on potato tubers (biocontrol activity of consortia); assay type: in vivo; conditions: potato tubers infected with mix of Erwinia carotovora 6276 and consortia
Source text: FIG. 6: Maceration assay on potato tubers.
as §1

[4] = system: NAHL-degrading bacteria in the nutritive solution; experiment: Ratio of NAHL-degrading bacteria in unplanted batches of nutritive solution; assay type: cell-based; conditions: for percentage of NAHL-degrading bacteria in the nutritive solution: without plants
Method: (§2) The non sterile batches (40×60×8 cm) contained 13 L of the nutritive solution Hydrobloom (Cellmax, UK) with Nitrogen at 0.80 g/L, Phosphore at 0.56 g/L and Potassium at 1.48 g/L as major components. The solution was diluted from a concentrated stock solution (×250) with non sterile water from the public water system. One hundred plants of Solanum tuberosum var. Allians, which were recovered from cultures performed under sterile conditions, were placed into holes (3 cm space to each other) of batch covers. Planted batches were placed in the greenhouse (Comité Nord Plants de Pomme de Terre, Bretteville-du-Grand-Caux) under natural light at 10-15° C. (night) and 25-30° C. (day). […] An untreated batch was used as a control. One gram of roots (fresh weight) was resuspended in 10 mL of sterile MgSO4 10 mM, diluted and spread on TSA and King B plates to isolate total cultivable bacteria and fluorescent Pseudomonas, respectively. Three samples were analyzed from each batch at each time D0, D14 and D28; from each sample, thirty isolates from TSA plates and thirty fluorescent isolates from King B plates were individually tested from production and inactivation of NAHL signal.
(§3) Bacterial isolates grown in 96-microwell plates were individually tested from production of NAHL with the A. tumefaciens biosensor NT1 (pZNLR4) and the inactivation of the C6-HSL signal, as described previously (d'Angelo-Picard et al. 2004).
Allians was evaluated. The plants were cultivated in vitro under sterile conditions, then placed into batches in a greenhouse at Bretteville-du-Grand-Caux (France) in a non-sterile environment. Especially, a non-sterile nutritive solution was used and served as a source of naturally occurring bacteria. […] The ratio of NAHL-degrading bacteria in the nutritive solution was evaluated before the treatment and 14-day later. This percentage increased from 10±2 to 30±2 in the case of the 6CL-treated batch and from 10±2 to 70±2 in the GCL-treated batch. From the 6CL- and GCL-treated batches, 10 NAHL-degrading bacteria were identified by their rrs sequence: 9 belonged to the Delftia genus, the other one to the Rhodococcus genus.

[5] = system: NAHL-degrading rhizobacteria of potato rhizosphere; experiment: Preliminary experiment in planted hydroponic batches: level and diversity of NAHL-degrading rhizobacteria (Table 1); assay type: in vivo, Solanum tuberosum var. Allians
Method: as §2, §3
At least 400 bp were submitted to the NCBI database.

[6] = system: NAHL-degrading and NAHL-producing bacteria of potato rhizosphere; experiment: Two independent analyses of 6CL and GCL treatments on planted batches (FIG. 7); assay type: in vivo, Solanum tuberosum var. Allians
Source text: FIG. 7: Percentage of NAHL-degrading and NAHL-producing strains in potato rhizosphere. […] An untreated batch was used as a control in the two independent sets of experiments. The mean of three replicates is shown. Statistically different values (Student t test; 0.05) are noted by different letters.
as §2, §3
An untreated batch was used as a control.

[7] = system: acyl-HSL degrading strains of potato rhizosphere; experiment: GCL treatment of potato plants in long-term hydroponic culture (FIG. 12); assay type: in vivo, Solanum tuberosum; set-up: dose or concentration left out as unconfirmed; conditions: 0.4 at D0, D18 and D49; at D28, D49 and D56
Method: The plants were cultivated in hydroponic batches from D0 to D17, then transferred into hydroponic system allowing the long term culture until tuberisation. At each time, three samples (D0 and D7) and four samples (D28, D49 and D56) were analyzed: the number of CFU/g of roots was estimated (B), as well as the percentage of acyl-HSL-producing (C) and acyl-HSL degrading strains. Different letters indicate a significative difference (Student's t-test; α=0.05) between the two conditions, untreated and GCL-treated.
The plants were cultivated in hydroponic batches from D0 to D17, then transferred into hydroponic system allowing the long term culture until tuberisation.

young plants = experiment: Sensitivity of young plants to the chemicals; conditions: high concentrations (1 mL/L); data not shown
[8] = 6CL- and GCL-treated batches together, rrs sequence

SMILES: CCC1CCC(=O)O1 (centres unmarked) [GCL, gamma-caprolactone]
- activity of consortia towards C6-HSL (ranking) [1]: the most active
- NAHL-inactivating bacteria recovered from consortia [2]: recovered
- NAHL-degrading isolates related to Chryseobacterium ([2]; 6CL and GCL consortia together): 10%
- NAHL-degrading isolates related to Delftia ([2]; 6CL and GCL consortia together): 80 % of the identified strains
- NAHL-degrading isolates related to Ralstonia ([2]; 6CL and GCL consortia together): 3%
- NAHL-degrading isolates related to Rhodococcus ([2]; 6CL and GCL consortia together): 7%
- NAHL-producing bacteria among isolates of the consortia ([2]; 280 isolates from 280 independent enrichments): none
- speed of C6-HSL signal inactivation versus Mannitol consortia (bacterial consortia): inactivated more rapidly
- speed of OC8-HSL signal inactivation versus Mannitol consortia (bacterial consortia): inactivated more rapidly
- biocontrol activity of the consortia against E. carotovora 6276 [3]: biocontrol activity was observed; also recorded: showed biocontrol activity
- NAHL-degrading bacteria belonging to the Delftia genus (of 10 identified) [4, 8]: 9
- NAHL-degrading bacteria belonging to the Rhodococcus genus (of 10 identified) [4, 8]: one
- percentage of NAHL-degrading bacteria in the nutritive solution ([4]; 14-day after treatment at 1 mL/L): 70±2%
- percentage of NAHL-degrading bacteria in the nutritive solution ([4]; before the treatment): 10±2%
- Log CFU/gram of root (fresh weight) ([5]; D0 (before treatment)): 8.0 ± 7.5 Log CFU/gram of root (fresh we
- NAHL degraders (%) ([5]; D0 (before treatment)): 16.7 ± 0.1 %
- NAHL producers (%) ([5]; D0 (before treatment)): 6.7 ± 1.0%
- rrs-identified NAHL-degraders: Delftia ([5]; D0, of 8 isolates): 3
- rrs-identified NAHL-degraders: Pseudomonas ([5]; D0, of 8 isolates): 2
- rrs-identified NAHL-degraders: Rhodococcus ([5]; D0, of 8 isolates): 3
- Log CFU/gram of root (fresh weight) ([5]; D28, 0.1 mL/L): 10.5 ± 9.8 Log CFU/gram of root (fresh we
- NAHL degraders (%) ([5]; D28, 0.1 mL/L): 33.3 ± 4.0 %
- NAHL producers (%) ([5]; D28, 0.1 mL/L): 11.1 ± 1.5%
- identified genera of NAHL-degrading bacteria ([5]; D28, 0.1 mL/L): 3
- rrs-identified NAHL-degraders: Bacillus ([5]; D28, 0.1 mL/L, of 8 isolates): 1
- rrs-identified NAHL-degraders: Delftia ([5]; D28, 0.1 mL/L, of 8 isolates): 2
- rrs-identified NAHL-degraders: Rhodococcus ([5]; D28, 0.1 mL/L, of 8 isolates): 5
- cell density (CFU/g of root) ([6]; 14 days after application at 0.4 mL/L, two experiments): consistently increased
- level of NAHL-degrading bacteria among fluorescent Pseudomonads ([6]; after GCL-treatments): no modification
- percentage of NAHL-degrading bacteria among total cultivable bacteria ([6]; applied to hydroponic plant cultures (FIG. 7)): significant increase
- effect on the percentage of acyl-HSL degraders [7]: clear effect
- sensitivity of young plants (young plants): sensitive
